Results as given in patent publication US8206690B2, “Oral health composition” (Mars Incorporated, priority 2006, dated 2012).

Experiments:
Assay type in all cases: cell-based, dogs
[1] = system: Trypsin-like protease activity; assay: Canine plate biofilm assay (PBA): protease activity (liquid BAPNA assay); settings: 48 hours, extracts at 500 μg/ml, vs controls
Protocol: (§1) The assay requires fresh supragingival canine dental plaque and saliva for inoculation. The inoculum consists of pooled dental plaque and unfiltered saliva sampled from a group of 14 dogs, varying in age, breed and oral health status.
(§2) The plaque and saliva were resuspended in artificial saliva to form the inoculum of approximately 15% plaque and 30% saliva.
(§3) The plate biofilm assay (PBA) utilises a 24 well plate format in which biofilms, representative of canine dental plaque, are grown on hydroxyapatite (HA) discs. Prior to being introduced to the 24 well assay plate, each HA disc is preconditioned for 2 hours in a solution of 50% filter sterilised canine saliva in artificial canine saliva. The preconditioning step stimulates the formation of a salivary pellicle on the HA disc surface. […] Each HA disc, with the exception of those being used for biomass quantification, is placed into 500 μl PBS and vortex mixed for 30 seconds to remove biofilm growth from the disc into solution. […] Biofilm-covered HA discs that are being used for biomass quantification are removed from the 24 well assay plate and used directly in the crystal violet assay.
Trypsin-like protease activity was measured using the liquid BAPNA assay, a colourimetric assay in which the amount of trypsin present in a sample is directly proportional to the intensity of the colour developed. […]

[2] = system: biofilms representative of canine dental plaque; assay: Canine plate biofilm assay (PBA): biomass quantification (crystal violet assay); settings: 48 hours, extracts at 500 μg/ml, OD595 vs no active controls
Protocol: as §1, §2, §3
The total amount of biofilm grown on the HA discs was quantified using the crystal violet staining method. Biomass was represented as being directly proportional to the OD reading at 595 nm (OD595) of the samples compared to controls. […]

Aerobes = assay: Canine plate biofilm assay (PBA): bacterial viable counts, aerobes; settings: extracts at 500 μg/ml, counted after 2 days, vs controls
Protocol: as §1, §2
as §3, with “saliva.” for “saliva. The preconditioning step stimulates the formation of a salivary pellicle on the HA disc surface.”
(§4) Viable numbers of bacteria were quantified using Columbia blood agar plates supplemented with haemin and menadione. Aerobes were counted after incubation for 2 days and anaerobes, including black pigmenting colonies (BPC), were counted after incubation at appropriate conditions for 9 days. […]

[3] = system: black pigmenting colonies (BPC); assay: Canine plate biofilm assay (PBA): bacterial viable counts, black pigmenting colonies; settings: extracts at 500 μg/ml, counted after 9 days, vs controls
Protocol: as §1, §2
as §3, with “saliva.” for “saliva. The preconditioning step stimulates the formation of a salivary pellicle on the HA disc surface.”
as §4

anaerobes = assay: Canine plate biofilm assay (PBA): bacterial viable counts, anaerobes; settings: extracts at 500 μg/ml, counted after 9 days, vs controls
Protocol: as §1, §2
as §3, with “saliva.” for “saliva. The preconditioning step stimulates the formation of a salivary pellicle on the HA disc surface.”
as §4

Structure (SMILES): [H]/N=C(\N/C(=N/[H])NCCCCCCNC(=N)NC(=N)Nc1ccc(Cl)cc1)Nc1ccc(Cl)cc1 [Chlorhexidine, chlorhexidine]
- Protease (% reduction) [1]: 95.76%
- Biomass (% reduction) [2]: 94.40%
- Aerobe (log 10 reduction) (Aerobes): 2.87 log 10 reduction
- BPC (Log 10 reduction) [3]: 2.74 Log 10 reduction
- Anaerobe (Log 10 reduction) (anaerobes): 2.48 Log 10 reduction
